Measurements from PMC9784827, “In Combo Studies for the Optimization of 5-Aminoanthranilic Acid Derivatives as Potential Multitarget Drugs for the Management of Metabolic Syndrome” (Pharmaceuticals, 2022).
Where two headings read alike, the source gives them in different places.

Columns and labels:
[1] = design: method as in PMID 20072920; settings: CUPRAC; cited from earlier work
diet-induced MetS model [2] = assay: In vivo diet-induced (high-fructose high-fat) MetS model; design: species or system Sprague–Dawley male rats; settings: MetS rats, 10 mg/kg p.o. for 14 days, vs untreated group; for effect on triglycerides and glucose (TyG) index: TyG = Ln(triglyceride x glucose/2); for effect on total cholesterol levels / effect on body weight / effect on glucose levels / effect on triglyceride levels: HFHF diet; for effect on total cholesterol levels / effect on glucose levels / effect on triglyceride levels: serum
Experimental: In the diet-induced model, MetS was generated through 12 weeks of the consumption of a high-fructose high-fat (HFHF) diet per the previous experience in our group. The control group received a standard diet during the same period. After this induction phase, the animals of the standard diet were randomly allocated into two groups; one group (C/treated groups) would receive treatment with compounds 2, 3, or 4 for 14 days (10 mg/kg, p.o.), and the other group would receive no treatment (C groups). The same allocation was made for the diet-induced MetS group (the MetS group received no treatment, while MetS/treated groups received compound 2, 3, or 4, 10 mg/kg, p.o. for 14 days), as depicted in Figure 4.
For the in vivo experimentation, eighty Sprague–Dawley male rats weighing 250 ± 25 g were housed in acrylic boxes and treated following the recommendations and requirements of the NOM-062-ZOO-1999 (Official Mexican Standard for the Production, Care, and Use of Laboratory Animals). They were kept in a clear-air room maintained on an artificial 12 h light/dark cycle and were given ad libitum access to food and water. The protocol was approved by the Institutional Subcommittee for the Care and Use of Laboratory Animals (SICUAL) with the registration number FMM/SICUAL/006/2017 (date of approval, 30 August 2017).
The animals were randomly allocated to a group (control groups) that was fed on a regular Chow commercial diet (Purina-Rodent Laboratory Chow-5001 3.310 kcal/g) or to a group (MetS groups) that was supplied with a high-fructose and high-fat diet (4.161 kcal/g) for the generation of MetS. From our own experience, MetS is established after twelve weeks with this diet. The weight of each animal was recorded at the beginning of the study and every week after the completion of the induction period. In weeks nine and twelve, the glucose, total cholesterol, and triglyceride levels were monitored in fasting conditions of 12 h, using an Accutrend plus monitor (Roche). Following the MetS induction phase, the control and MetS groups were rearranged into the following groups: (1) control (CM, regular diet + no treatment n = 10); (2) MetS (HFHF diet + no treatment, n = 10); (3) control + compound 2 (C/2 regular diet + treatment with 2, n = 10); (4) MetS + compound 2 (MetS/2, HFHF diet + treatment with 2, n = 10); (5) control + compound 3 (C/3, regular diet + treatment with […], n = 10); (6) MetS + compound 3 (MetS/3, HFHF diet + treatment with 3, n = 10); (7) control + compound 4 (C/4, regular diet + treatment with 4, n = 10); (8) MetS + compound 4 (MetS/4, HFHF diet + treatment with 4, n = 10). The treatment stage lasted 14 days, and the animals retained the same diet they had during the induction to exclude the effect of diet change. All the animals received 100 μL of a 1% Kolliphor EL mixture in water with or without the tested compound (10 mg/Kg) via nasogastric. Animals were sacrificed by decapitation. The blood was collected and centrifuged at 1372× g for 15 min at 4 °C. The serum was gathered and stored at −80 °C until the determination of metabolic parameters.
The animals’ serum was defrosted, and triacylglyceride, cholesterol, and glucose levels were determined on an Architect c8000 system (Abbott, Wiesbaden, Germany). Statistical analysis was performed using one-way ANOVA, followed by Dunnett’s multiple comparisons tests employing GraphPad Prism version 9.4.1 (GraphPad Software, La Jolla, CA, USA). Differences were considered significant when p ≤ 0.05.

[3] = Total antioxidant capacity, CUPRAC assay (Trolox equivalent antioxidant capacity); settings: triplicate
Experimental: (§1) The HMG-CoA Reductase Assay Kit from Sigma-Aldrich (catalog number CS1090, St. Louis, MO, USA) was used to determine the inhibitory properties of compounds 3 and 4 over enzyme activity, using the instructions provided by the fabricant. […] For IC50 determination of compound 3, final concentrations of 2.5, 5.0, 10.0, and 20 μM were employed by triplicate. The Total Antioxidant Capacity Assay Kit from Sigma-Aldrich (catalog number MAK187, St. Louis, MO, USA) was used for the determination of in vitro antioxidant activity following the manufacturer’s instructions by triplicate.

HMG-CoA reductase [4] = molecular target: T1, HMG-CoA reductase (Homo sapiens, UniProt P04035); assay: In vitro HMG-CoA reductase inhibition (HMG-CoA Reductase Assay Kit, Sigma-Aldrich CS1090); type: biochemical; settings: for inhibition at 20 µM: initial screening, read-out: inhibition of HMG-CoA reductase enzymatic activity
T1 construct: purchased Sigma-Aldrich CS1090
T1 sequence (P04035 426-888 limits assumed): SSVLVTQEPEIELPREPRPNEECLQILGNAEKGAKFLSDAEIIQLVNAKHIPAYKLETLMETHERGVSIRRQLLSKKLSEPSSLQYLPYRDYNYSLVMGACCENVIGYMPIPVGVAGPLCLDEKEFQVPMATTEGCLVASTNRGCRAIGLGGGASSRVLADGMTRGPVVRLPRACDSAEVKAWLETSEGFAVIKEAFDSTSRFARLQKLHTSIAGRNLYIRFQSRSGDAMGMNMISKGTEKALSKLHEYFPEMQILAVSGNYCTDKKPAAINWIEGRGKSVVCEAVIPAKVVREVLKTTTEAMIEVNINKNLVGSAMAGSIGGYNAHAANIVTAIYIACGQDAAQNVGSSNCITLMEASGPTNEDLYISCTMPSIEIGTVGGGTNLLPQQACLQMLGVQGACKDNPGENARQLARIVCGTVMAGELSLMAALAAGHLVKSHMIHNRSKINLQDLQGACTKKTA
Experimental: as §1

HMG-CoA reductase [5] = molecular target: T1, HMG-CoA reductase; design: method as in earlier work; settings: same commercial kit, ref 73 (Mendieta et al.); cited from earlier work
diet-induced MetS model [6] = test system: diet-induced MetS model; design: method as in PMID 34577613; settings: in vivo diet-induced MetS model, previous study ref 38; cited from earlier work

COc1cc(/C=C/C(=O)O)ccc1O [ferulic acid]
TEAC (Trolox equivalent antioxidant capacity) [1]: 1.20

COc1ccc(/C=C/C(=O)Nc2ccc(NC(=O)/C=C/c3ccc(OC)c(OC)c3)c(C(=O)NCc3ccc(C(F)(F)F)cc3)c2)cc1OC [Compound 4, (2E,2′E)-N,N′-(2-((4-(Trifluoromethyl)benzyl)carbamoyl)-1,4-phenylene)bis(3-(3,4-dimethoxyphenyl)acrylamide)]
melting point: > 250 °C
effect on triglycerides and glucose (TyG) index (diet-induced MetS model [2]): decrease
effect on total cholesterol levels (diet-induced MetS model [2]): not significant
effect on body weight (diet-induced MetS model [2]): not significant
TEAC (Trolox equivalent antioxidant capacity) [3]: 1.33 ± 0.04
inhibition at 20 µM (HMG-CoA reductase [4]): 46%

C/C=C/c1cc(OC)c(OC)cc1OC [α-asarone]
IC50 (HMG-CoA reductase [5]): 5.86 µM

COc1ccc(C(=O)Nc2ccc(NC(=O)c3ccc(OC)c(OC)c3)c(C(=O)NCc3ccc(C(F)(F)F)cc3)c2)cc1OC [Compound 1]
effect on blood pressure (diet-induced MetS model [6]): diminished
effect on glucose serum levels (diet-induced MetS model [6]): diminished
effect on total cholesterol serum levels (diet-induced MetS model [6]): diminished

COc1ccc(C(=O)Nc2ccc(NC(=O)c3ccc(OC)c(OC)c3)c(C(=O)O)c2)cc1OC [Compound 3, 2,5-Bis(3,4-dimethoxybenzamido)benzoic Acid]
effect on triglycerides and glucose (TyG) index (diet-induced MetS model [2]): decrease
effect on glucose levels (diet-induced MetS model [2]): reduced
effect on total cholesterol levels (diet-induced MetS model [2]): reduced
effect on triglyceride levels (diet-induced MetS model [2]): reduced
effect on body weight (diet-induced MetS model [2]): reduced
TEAC (Trolox equivalent antioxidant capacity) [3]: 1.01 ± 0.06
inhibition at 20 µM (HMG-CoA reductase [4]): 94%
IC50 (HMG-CoA reductase [4]; concentrations 2.5, 5.0, 10.0 and 20 μM, triplicate): 8.89 ± 0.51 µM

COc1ccc(C(=O)Nc2ccccc2C(=O)NCc2ccc(C(F)(F)F)cc2)cc1OC [Compound 2]
effect on glucose levels (diet-induced MetS model [2]): did not affect
effect on total cholesterol levels (diet-induced MetS model [2]): did not affect
effect on triglyceride levels (diet-induced MetS model [2]): did not affect
effect on body weight (diet-induced MetS model [2]): did not affect

O=C(O[C@@H]1Cc2c(O)cc(O)cc2O[C@@H]1c1ccc(O)c(O)c1)c1cc(O)c(O)c(O)c1 [epicatechin gallate]
TEAC (Trolox equivalent antioxidant capacity) [1]: above 3.0

O=c1c(O)c(-c2ccc(O)c(O)c2)oc2cc(O)cc(O)c12 [quercetin]
TEAC (Trolox equivalent antioxidant capacity) [1]: above 3.0
